Earlier results as cited in patent publication EP0387265B1, “USE OF 5-AMINOSALICYCLIC ACID (5-ASA) FOR THE PRODUCTION OF A PHARMACEUTICAL PREPARATION FOR USE IN REPERFUSION TREATMENT” (priority 1987, dated 1989).
Where two headings read alike, the source gives them in different places.

Experiments:
[1] = rats
[2] = capable of neutralizing the toxic properties of the free radicals of oxygen; 'in contrast to' means not a radical scavenger
[3] = 250 mg intravenously, humans having normal coagulation
[4] = humans, moderate doses
[5] = in vivo
[6] = 100 or 250 mg intravenously, 6 normal test humans
[7] = tested on: reperfusion ischemic injury in the gastric mucosa; details: rats
[8] = tested on: acute myocardial ischemia and reperfusion injuries; details: dogs; MPG together with neutrophilic antiserum; compared to a control group which received non-immune serum
colitis ulcerosa = details: in vivo

Compound: Nc1ccc(O)c(C(=O)O)c1 [5-ASA, 5-aminosalicylic acid]
- nephrotoxic effect [1]: nephrotoxic effect has been demonstrated
- radical scavenger [2]: is a radical scavenger
- effect of fibrinolysis [3]: has not been found to result in any effect
- effect of the thrombocyte function [3]: has not been found to result in any effect
- nephrotoxic effect [4]: does not have any noticeable nephrotoxic effect
- side effects [5]: No side effects have been observed which can be related to the substance with certainty
- distribution volume [6]: 0.4 L/kg
- half-life [6]: 35 min
- protection against reperfusion ischemic injury in the gastric mucosa [7]: offers protection

Compound: CC(S)C(=O)NCC(=O)O (stereo not shown) [MPG, N-2-mercaptopropionyl glycine]
- reduced the infarct size [8]: 63%

Compound: CC(=O)Oc1ccccc1C(=O)O [acetylsalicylic acid]
- effect against colitis ulcerosa (colitis ulcerosa): no effect

Compound: O=C([O-])c1ccccc1O.[Na+] [sodium salicylate]
- effect against colitis ulcerosa (colitis ulcerosa): no effect

Compound: Nc1ccc(S(=O)(=O)Nc2ccccn2)cc1 [sulfapyridine]
- protection against reperfusion ischemic injury in the gastric mucosa [7]: not
